# According to patent US20140155362A1, “BHQ-CONJUGATES, AND RELATED COMPOUNDS, METHODS OF MAKING THE SAME, AND METHODS OF USE THEREOF” (priority 2011, published 2014):
# “And” between values parts separate entries of the source, which are not always exact repeats. Equal values may be shown once.
# Tests used:
# [1] = Determination of the dark hydrolysis rate (τdark) in KMOPS; type: physicochemical; conditions: for τdark (time constant for dark hydrolysis): 100 μM in KMOPS, stored in the dark
# Protocol: Determination of the Dark Hydrolysis Rate (τdark).
# (§1) Three 100-μM solutions of BHQ-O-5HT in KMOPS were created and stored in the dark. Aliquots (20 μL) were removed periodically from each solution and analyzed by HPLC. The percents remaining for each time point for each solution were averaged and plotted versus time. A simple single exponential decay curve provided the best fit. The time constant for dark hydrolysis (τdark) was determined to be 260 h. The experiment was repeated for BHQ-N-5HT, and the time constant for dark hydrolysis (τdark) was determined to be 300 h.
# as §1, with “BHQ-VAA” for “BHQ-O-5HT”, “140” for “260”, “h.” for “h. The experiment was repeated for BHQ-N-5HT, and the time constant for dark hydrolysis (τdark) was determined to be 300 h.”
# [2] = Determination of the uncaging quantum efficiency (Qu), 1-photon photolysis at 365 nm; type: physicochemical; conditions: for Qu (uncaging quantum efficiency): 365±15 nm, KMOPS
# Protocol: Determination of the Uncaging Quantum Efficiency (Qu).
# (§2) The quantum efficiency was calculated using the equation Qu=(Iσt90%)^−1, where I is the irradiation intensity in einstein·cm^−2, σ is the decadic extinction coefficient (1,000 times ε) and t90% is the time in seconds required for the conversion of 90% of the starting material to product. To find t90%, a solution of BHQ-O-5HT in KMOPS was prepared and placed in a cuvette along with a small stir bar. While stirring, the solution was irradiated with UV light from a mercury lamp (Spectroline SB-100P, Spectronics Corporation) equipped with two glass filters (CS0-52, CS7-60, Ace Glass) so that the wavelength was restricted to 365±15 nm. Periodically, 20-μL aliquots were removed and analyzed by HPLC. The time points collected were as follows: 0, 5, 10, 20, 30, 60, 90, and 120 s. Percent BHQ-O-5HT remaining was plotted verses time of photolysis. A simple single exponential decay curve provided the best fit for the data and was used to extrapolate t90%. The lamp's UV intensity I was measured using potassium ferrioxalate actinometry. Initially, 6 mM potassium ferrioxalate solution (3 mL) was irradiated with the mercury lamp for 60 s. A portion of this solution (2 mL) was combined with aqueous buffer (3 mL), 0.1% phenanthroline solution (3 mL), and 2M KF solution (1 mL) in a 25-mL volumetric flask. Deionized water was added to generate a 25 mL solution. A blank solution was also prepared using the same method, but the potassium ferrioxalate used in the blank was not irradiated. Both solutions were allowed to sit for one hour and the blank was then used as a baseline against which the absorbance of the irradiated solution was measured at 510 nm. The following equation was used to calculate lamp intensity: […]
# where V3 is the volume of dilution (25 mL), V2 is the volume of irradiated potassium ferrioxalate solution taken for analysis (2 mL), ΔD510 is the absorption of the solution at 510 nm, Σ510 is the actinometry extinction coefficient (1.11×10^4 M^−1 cm^−1),)Fe is the quantum yield for production of ferrous ions from potassium ferrioxalate at 365 nm, and t represents the time of irradiation. The ΔD510 value used for calculations is the average of two measurements taken before and after irradiation of BHQ-O-5HT. Compilation of the measurements yielded an uncaging quantum efficiency Qu, of 0.30. The experiment was repeated for BHQ-N-5HT, and compilation of the measurements yielded an uncaging quantum efficiency Qu of 0.10.
# as §2, with “c)” for “ε)”, “BHQ-VAA” for “BHQ-O-5HT”, “irradiated.” for “irradiated. Both solutions were allowed to sit for one hour and the blank was then used as a baseline against which the absorbance of the irradiated solution was measured at 510 nm. The following equation was used to calculate lamp intensity:”
# [3] = Determination of two-photon action cross-sections (δu) at 740 nm; type: physicochemical
# Protocol: Determination of Two-photon Action Cross-Sections (δu).
# A portion of BHQ-O-5HT was dissolved in KMOPS buffer and the concentration of the solution was found using UV-Vis absorption in conjunction with Beer's law. Aliquots (25 μL) of this solution were placed in a microcuvette (10×1×1 mm illuminated dimensions) and irradiated with a fs-pulsed and mode-locked Ti:Sapphire laser (Chameleon Ultra II, Coherent) with 740-nm light at an average power of 300 mW. Three samples were irradiated for each of the following time periods: 0, 5, 10, 20, and 40 min. The samples were compiled and analyzed by HPLC. A solution of fluorescein at pH 9.0 was prepared to act as a standard for BHQ-O-5HT because of its well-characterized 2PE cross-section (δaF=30 GM at 740 nm) and quantum yield (QF2=0.9). UV-V is absorption spectroscopy was used to correlate absorption at 488 nm to precise concentration. Aliquots (25 μL) of fluorescein solution were placed in the microcuvette and irradiated by the laser under the same conditions used for the BHQ-O-5HT solution. The fluorescence output of the solution was measured with a radiometer before and after the BHQ-O-5HT samples were irradiated and the two values were averaged. The following equation was used to calculate the two-photon action cross-section for BHQ-O-5HT:
# where Np is the number of product molecules formed per second (determined by HPLC), φ is the collection efficiency of the detector (SED033 on an IL-1700, International Light) used to measure the fluorescence of fluorescein passing through the cuvette window and through a 535/545 nm bandpass filter at a right angle to the laser's beam, CF is the concentration of fluorescein, <F(t)> is the time averaged fluorescent photon flux (photons/s) of fluorescein and CS is the initial concentration of the caged compound. The measurements were compiled and the two-photon action cross-section for BHQ-O-5HT was determined to be 0.50 GM. The experiment was repeated for BHQ-N-5HT, and the two-photon action cross-section was determined to be 0.42 GM.
# Determination of Two photon Action Cross-Sections (δu).
# A portion of BHQ-VAA was dissolved in KMOPS buffer and the concentration of the solution was found using UV-Vis absorption in conjunction with Beer's law. Aliquots (25 μL) of this solution were placed in a microcuvette (10×1×1 mm illuminated dimensions) and irradiated with a fs-pulsed and mode-locked Ti: Sapphire laser (Chameleon Ultra II, Coherent) with 740-nm light at an average power of 300 mW. Three samples were irradiated for each of the following time periods: 0, 5, 10, 20, and 40 min. The samples were compiled and analyzed by HPLC. […] The fluorescence output of the solution was measured with a radiometer before and after the BHQ-VAA samples were irradiated and the two values were averaged. […]
# [4] = Determination of absorbance maximum and molar extinction coefficient (ε) in KMOPS buffer; type: physicochemical; conditions: for ε (molar extinction coefficient): at λmax
# Protocol: Determination of the Molar Extinction Coefficient (ε).
# (§3) A weighed portion of BHQ-O-5HT was dissolved in methanol. A measured aliquot of this solution was withdrawn and placed in KMOPS buffer (3.0 mL) and mixed thoroughly to generate a 100-μM solution of BHQ-O-5HT. The absorbance A of this solution at τmax=368 nm was measured. This method was repeated twice with different masses of BHQ-O-5HT.
# Determination of the Molar Extinction Coefficient (s).
# as §3, with “BHQ-VAA” for “BHQ-O-5HT”, “BHQ-VAA.” for “BHQ-O-5HT.”, “λmax=368” for “τmax=368”
# [5] = tested on: ex vivo zebrafish brain (optic tectum); experiment: Electrophysiological recording of PTZ-induced seizure activity in ex vivo zebrafish brain; conditions: PTZ 15 mM-induced seizure
# Protocol: BHQ-O-5HT Mediates the Light Activation of 5HT in an Ex Vivo Zebrafish Brain Preparation (FIG. 1.1).
# A microelectrode inserted into the optic tectum was used to record seizure activity induced by application of pentalenetetrazole (PTZ, 15 mM). The ictal and interictal spikes can be observed at regular intervals. After 1040 s, BHQ-O-5HT (1 mM) was added. No change in the amplitude of the ictal spikes was observed. At 1640 s, the preparation was exposed to a brief (˜1 ms) flash of 365-nm light. […] Since 5HT is an inhibitor of seizures,^1,2 this is the expected result.
# Procedure for electrophysiological recording in ex vivo zebrafish brain:
# An adult zebrafish brain was obtained by dissection in oxygenated artificial cerebrospinal fluid (ACSF).* A sharp glass pipet microelectrode (15 MΩ impedance), loaded with ACSF, was inserted into the optic tectum. A chloride-coated silver wire (0.010 in., A-M Systems, Inc. Sequim, Wash.) reference (15 MΩ impedance) was placed contra-laterally, adjacent to the brain. Neuronal activity was recorded using an MDA-41 AC Differential Amplifier (Bak Electronics, Mount Airy, Md.) and a Tektronix DPO 3012 Digital Phosphor Oscilloscope (Beaverton, Oreg.) using MATLAB. Baseline activity was recorded for 5 min followed by introduction of PTZ (15 mM). […] The response was recorded for 30 min.
# [6] = tested on: cultured dorsal root ganglia (DRG) cells; type: cell-based, mouse
# [7] = Table 1.1, KMOPS buffer, 100 μM
# [8] = BHQ-OPh, previous unpublished work (Zhu & Dore)
# [9] = Table 2.1, KMOPS buffer, 100 μM
smiles,measurement,setting,value
O=C(NCCc1c[nH]c2ccc(O)cc12)OCc1ccc2ccc(O)c(Br)c2n1 [BHQ-N-5HT],τdark (time constant for dark hydrolysis),[1]; Table 1.1,300 h
same,Sensitivity Qu × ε,[2]; Table 1.1,210 M⁻¹ cm⁻¹
same,Qu (uncaging quantum efficiency),[2]; Table 1.1,0.10
same,δu (two-photon uncaging action cross-section),"[3]; Table 1.1, KMOPS",0.42 GM
same,λmax,[4]; [7],370 nm
same,ε (molar extinction coefficient),[4]; [7],"2,100 M^−1 cm^−1"
NCCc1c[nH]c2ccc(OCc3ccc4ccc(O)c(Br)c4n3)cc12 [BHQ-O-5HT],"change in amplitude of ictal spikes, before light","[5]; compound 1 mM added, no irradiation",No change
same,"change in amplitude of ictal spikes, after light flash","[5]; compound 1 mM, brief (~1 ms) flash of 365-nm light",immediate reduction in the amplitude of the ictal spikes
same,τdark (time constant for dark hydrolysis),[1]; Table 1.1,260 h
same,Sensitivity Qu × ε,[2]; Table 1.1,600 M⁻¹ cm⁻¹
same,Qu (uncaging quantum efficiency),[2]; Table 1.1,0.30
same,δu (two-photon uncaging action cross-section),"[3]; Table 1.1, KMOPS",0.50 GM
same,λmax,[4]; [7],368 nm
same,ε (molar extinction coefficient),[4]; [7],"2,000 M^−1 cm^−1"
Oc1ccc2ccc(COc3ccccc3)nc2c1Br [BHQ-OPh],time constant for hydrolysis in the dark τdark,"[1]; simulated physiological conditions, dark",95 h
same,quantum efficiency Qu,"[2]; 1-photon photolysis at 365 nm, pH 7.2 KMOPS",0.19
same,2-photon photolysis uncaging action cross section δu,[3]; pH 7.2 KMOPS,0.56 GM
same,ε,[4]; [8],3200 M⁻¹ cm⁻¹
same,λmax,[4]; [8],369
COc1cc(CNC(C)=O)ccc1OCc1ccc2ccc(O)c(Br)c2n1 [BHQ-VAA],τdark (time constant for dark hydrolysis),[1]; Table 2.1,140 h
same,Sensitivity Qu × ε,[2]; Table 2.1,486 M⁻¹ cm⁻¹
same,Qu (uncaging quantum efficiency),[2]; Table 2.1,0.18
same,δu (two-photon uncaging action cross-section),"[3]; Table 2.1, KMOPS",0.61 GM
same,λmax,[4]; [9],368 nm and 370 nm
same,ε (molar extinction coefficient),[4]; [9],2700 M⁻¹ cm⁻¹
CCCCCCCCC(=O)NCc1ccc(OCc2ccc3ccc(O)c(Br)c3n2)c(OC)c1 [BHQ-VNA],electrophysiological response after light pulse,[6],immediate potential change is observed that is indistinguishable from the VNA trace
same,"electrophysiological response, bath applied, without light",[6],does not have any affect
"CCCCCCCCC(=O)NCc1ccc(O)c(OC)c1 [VNA, N-vanillyl nonanamide, reference compound]",electrophysiological response (extracellular potential) on topical application,"[6]; single DRG neuron, via TRPV1 channels",strong and immediate electrophysiological response
